# The source made the active and inactive calls. No cut-off for these calls is given here.
# What was measured:
# [1] = target: T1, Neuropeptide Y receptor type 2 (Homo sapiens, UniProt P49146); assay: (§1) Displacement of [125I]PYY from NPY-Y2 receptor in human KAN-TS cell membranes after 1 hr by scintillation counting analysis
# T1 sequence (P49146 whole entry): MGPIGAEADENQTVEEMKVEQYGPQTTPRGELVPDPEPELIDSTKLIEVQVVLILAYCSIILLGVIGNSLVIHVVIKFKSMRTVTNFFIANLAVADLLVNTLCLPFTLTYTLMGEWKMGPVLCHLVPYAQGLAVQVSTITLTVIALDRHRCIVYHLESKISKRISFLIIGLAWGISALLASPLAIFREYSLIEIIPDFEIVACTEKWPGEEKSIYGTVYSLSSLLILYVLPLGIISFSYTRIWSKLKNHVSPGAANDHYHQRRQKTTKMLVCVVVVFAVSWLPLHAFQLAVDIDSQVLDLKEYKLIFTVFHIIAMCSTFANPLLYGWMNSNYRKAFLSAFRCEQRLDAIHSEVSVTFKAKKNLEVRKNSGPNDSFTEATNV
# [2] = target: T2, Microsomal triglyceride transfer protein large subunit (Homo sapiens, UniProt P55157); assay: Inhibition of MTP (unknown origin)-mediated triglyceride transfer from donor to acceptor vesicles preincubated for 5 mins followed by enzyme addition by [14C]-counting analysis
# T2 sequence (P55157 whole entry): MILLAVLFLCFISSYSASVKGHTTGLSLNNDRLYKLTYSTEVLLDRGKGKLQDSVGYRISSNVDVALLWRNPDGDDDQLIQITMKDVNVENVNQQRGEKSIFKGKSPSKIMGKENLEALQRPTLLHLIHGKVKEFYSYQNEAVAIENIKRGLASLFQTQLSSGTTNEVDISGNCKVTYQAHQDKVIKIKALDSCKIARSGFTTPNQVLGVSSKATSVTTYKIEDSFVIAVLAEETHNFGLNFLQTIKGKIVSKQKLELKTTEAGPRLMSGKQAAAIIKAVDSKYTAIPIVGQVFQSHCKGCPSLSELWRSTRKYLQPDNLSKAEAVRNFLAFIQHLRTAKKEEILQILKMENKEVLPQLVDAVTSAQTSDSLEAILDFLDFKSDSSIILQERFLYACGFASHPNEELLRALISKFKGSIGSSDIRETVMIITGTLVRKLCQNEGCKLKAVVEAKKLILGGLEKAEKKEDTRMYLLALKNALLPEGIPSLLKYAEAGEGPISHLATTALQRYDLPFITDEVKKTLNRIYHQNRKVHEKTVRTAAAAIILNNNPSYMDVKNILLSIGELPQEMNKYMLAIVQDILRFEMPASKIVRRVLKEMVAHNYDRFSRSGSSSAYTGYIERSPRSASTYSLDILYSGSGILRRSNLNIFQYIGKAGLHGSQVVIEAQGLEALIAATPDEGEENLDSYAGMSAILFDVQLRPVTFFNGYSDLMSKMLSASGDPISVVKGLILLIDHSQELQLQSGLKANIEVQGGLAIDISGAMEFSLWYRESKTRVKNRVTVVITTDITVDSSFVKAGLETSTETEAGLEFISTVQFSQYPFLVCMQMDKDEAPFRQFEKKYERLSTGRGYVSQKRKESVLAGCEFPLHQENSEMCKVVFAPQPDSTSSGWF
# [3] = Metabolic stability in human liver microsomes assessed as compound remaining after 15 mins; type: ADME, Microsome; conditions: read-out: Stability
# Rattus norvegicus = assay: Receptor occupancy in Sprague-Dawley rat brain at 10 mg/kg, sc by LC/MS analysis; type: functional
# [4] = Metabolic stability in rat liver microsomes assessed as compound remaining after 15 mins; type: ADME, Microsome; conditions: read-out: Stability
# [5] = target: T1, Neuropeptide Y receptor type 2; assay: Antagonist activity at NPY-Y2 receptor in human KAN-TS cell membranes assessed as inhibition of PYY-stimulated [35S]GTPgammaS binding preincubated for 30 mins prior to [35S]GTPgammaS-treatment measured after 1 hr; type: functional; conditions: read-out: pA2 (converted)
# [6] = target: T3, Neuropeptide Y receptor type 2 (Homo sapiens) (UniProt P49146); assay: as §1
# T3 sequence (whole entry): T1 sequence (P49146 whole entry)
# [7] = target: T2, Microsomal triglyceride transfer protein large subunit; assay: Inhibition of MTP (unknown origin)
Structure (SMILES),IC50 [1],remaining at 0.25 h [3],remaining at 0.25 h [4],other results
CCNC(=O)C(c1ccccc1)C1CCN(c2ccc(C(=O)Nc3ccccc3-c3ccccc3)cc2F)CC1 (centres undefined),45 nM,,,
CCNC(=O)C(c1ccccc1)C1CCN(c2ccc(NC(=O)c3ccccc3Br)cc2F)CC1 (centres undefined),665 nM,,,
CCNC(=O)C(c1ccccc1)C1CCN(c2ccc(NS(=O)(=O)c3ccccc3-c3ccccc3)cc2F)CC1 (centres undefined),,,,Activity [6]: inactive
CCN(CC)C(=O)C(c1ccccc1)N1CCN(c2ccc(NC(=O)c3ccccc3-c3cccnc3)cc2F)CC1 (centres undefined),,1.4%,1.7%,IC50 [7]: 710 nM
CCNC(=O)C(c1ccccc1)C1CCN(c2ccc(NC(=O)c3ccccc3-c3ccsc3)cc2F)CC1 (centres undefined),70 nM,,,
CCNC(=O)C(c1ccccc1)C1CCN(c2ccc(NC(=O)c3c(C)noc3C)cc2F)CC1 (centres undefined),476 nM,,,
CCNC(=O)C(c1ccccc1)C1CCN(c2ccc(NC(=O)Nc3c(C)noc3C)cc2F)CC1 (centres undefined),,,,IC50 [2]: > 10 µM; Occ (Rattus norvegicus): inactive; Kb [5]: 3.98 nM
CCNC(=O)C(c1ccccc1)C1CCN(c2ccc(NC(=O)Nc3ccccc3-c3ccccc3)cc2F)CC1 (centres undefined),27 nM,,,
CCN(CC)C(=O)C(c1ccccc1)C1CCN(c2ccc(NC(=O)c3c(C)noc3C)cc2F)CC1 (centres undefined),37 nM,5.3%,3.3%,IC50 [2]: > 10 µM; Occ (Rattus norvegicus; route subcutaneous): 50%; Kb [5]: 31.6 nM

# Continued, in another order:
IC50 [1],remaining at 0.25 h [3],remaining at 0.25 h [4],Structure (SMILES),other results
24 nM,,,CCNC(=O)C(c1ccccc1)C1CCN(c2ccc(NC(=O)c3ccccc3-c3cccnc3)cc2F)CC1 (centres undefined),
12 nM,1.5%,17%,CCN(CC)C(=O)C(c1ccccc1)C1CCN(c2ccc(NC(=O)Nc3c(C)noc3C)cc2F)CC1 (centres undefined),IC50 [2]: > 10 µM; Occ (Rattus norvegicus): inactive; Kb [5]: 2 nM
7 nM,73%,98%,CCN(CC)C(=O)C(c1ccccc1)C1CCN(c2ccc(NC(=O)c3ccccc3-c3cccnc3)cc2F)CC1 (centres undefined),
12 nM,,,CCNC(=O)C(c1ccccc1)C1CCN(c2ccc(NC(=O)c3ccccc3-c3ccccc3)cc2F)CC1 (centres undefined),
